Experimental data: patent US12060360B2, “Lysyl oxidase inhibitors” (The Institute of Cancer Research: Royal Cancer Hospital, priority 2017, dated 2024)

Assays:
[1] = target: T1, LOX (Mus musculus, UniProt P28301); assay: LOX activity in cysts assay (LOX-roGFP2 biosensor, MDCK cysts); assay type: cell-based; details: MDCK cysts; for inhibition at 10 µM: inhibitor added 30 min prior to imaging, DMSO = 0%, BAPN 1 mM = 100% inhibition, read-out: LOX biosensor inhibition (cyst) @ 10 uM; for IC50: roGFP2 ratio at basal surface, read-out: LOX biosensor IC50 (cyst)
T1 construct: Full length LOX cDNA was then PCR cloned into pEGFP-N1 (Clonetech), or biosensor vector proGFP2-N1; expressed in transfected cells; host or cells: MDCK cells grown as cysts on Matrigel, G418-selected
T1 sequence (P28301 163-411): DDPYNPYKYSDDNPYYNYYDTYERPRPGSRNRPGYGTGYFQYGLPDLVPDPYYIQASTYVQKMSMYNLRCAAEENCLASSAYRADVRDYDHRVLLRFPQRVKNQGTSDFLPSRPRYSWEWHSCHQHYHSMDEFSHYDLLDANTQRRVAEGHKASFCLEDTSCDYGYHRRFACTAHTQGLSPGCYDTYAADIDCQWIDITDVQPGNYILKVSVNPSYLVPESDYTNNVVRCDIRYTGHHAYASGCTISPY
Experimental: LOX Activity in Cysts Assay (Tang et al, 2017).
All cell lines used in this study were purchased from American Type Culture Collection (ATCC). Mycoplasma contamination was routinely monitored by PCR. Cells used were not found to be Mycoplasma positive. MDCK cell lines were cultured in Dulbecco's Modified Eagle Medium (DMEM) supplemented with 10% fetal bovine serum (FBS) and 1% Penicillin Streptomycin solution (Pen Strep). For GFP constructs transfection in MDCK cells, lipofectamine 3000 was used according to manufactures protocols. Cells were either selected with G418 (Life Technologies) at 5 mg/ml. All cell culture reagents were purchased from Life Technologies.
To produce MDCK cysts, cells were cultured on Matrigel (Corning) with 2% Matrigel supplemented in DMEM with 10% FBS. Cysts were allowed to form for 10 days before subsequent studies.
Mouse LOX cDNA was purchased from OriGene. Full length LOX cDNA was then PCR cloned into pEGFP-N1 (Clonetech), or biosensor vector proGFP2-N1 (Hanson, 2004) using the following primers, […] (forward primer) and […] (reverse primer). For the insertion into pEGFP-N1 or proGFP2-N1, NheI and XhoI restriction sites were added to forward and reverse primers accordingly. Mutant LOX constructs were made using QuickChange II site-directed mutagenesis kit (Agilent Technologies) following manufacture's protocol using LOX-GFP as template. To generate, roGFP2 versions of LOX mutant constructs, LOX mutant cDNA was transferred from pEGFP-N1 to proGFP2-N1 using NheI and XhoI.
All photomicrographs were taken with a Leica TCS SP8 X confocal system. For LOX biosensor imaging, live MDCK cysts were used. The oxidised biosensor was excited using a 405 nm laser, while the reduced biosensor was excited with a 488 nm laser. Emission of the biosensor was recorded at 500 nm˜530 nm range using sequential scans. Ratio images were generated following a published protocol {Kardash, 2011 #376}. Note, while the published protocol generates YFP/CFP ratio images, we used it to generate Oxidised/Reduced (roGFP2 ratio) ratio images. The roGFP2 ratio at the basal surface of MDCK cysts was used to indicate LOX inhibition. LOX inhibitors were added 30 min prior to imaging.
For clarity, readout for DMSO treated cysts represents 0% inhibition (no inhibition) and readout for BAPN at 1 mM is used as 100% inhibition (full inhibition).

[2] = system: MDA-MB-231 human breast adenocarcinoma; assay: MDA-MB-231 xenografts, primary tumour volume T/C; assay type: in vivo; details: 200 mg/kg po qd, ratio of average tumour volume treated/vehicle control, p<0.05
Experimental: (§1) All procedures involving animals were approved by the Animal Welfare and Ethical Review Body of the Institute of Cancer Research and Cancer Research UK Manchester Institute in accordance with National Home Office regulations under the Animals (Scientific Procedures) Act 1986 and according to the guidelines of the Committee of the National Cancer Research Institute Tumour size was determined by caliper measurements of tumour length, width and depth and volume was calculated as volume=0.5236×length×width×depth (mm).
MDA-MB-231 xenografts. Ncr nude female mice at 6 weeks old from Charles River were injected into the third upper nipple mammary fat pad with MDA-MB-231 Luc 4×10^6 in 100 ul PB (50:50 Matrigel). When tumours reach a mean of 80 mm^3 around 10 days post cell inoculation the animals are allocated in 4 groups of 8. LOX inhibitor treatment is then administrated by oral gavage dosing, at 0.2 ml/20 g bodyweight once daily for up to 28 consecutive days. Tumours and weights are measured twice weekly using calipers and the animals can be imaged using non invasive method by bioluminescence using IVIS 200 imaging machine, weekly using 150 mg/kg luciferin administrate intraperitoneal or subcutaneous. At the end of the study the animals are culled, and samples taken, fixed or snap frozen in liquid nitrogen. Frozen samples kept at −80 degree centigrade until being analyzed and the fixed samples stained according to desired marker.
(§2) For therapeutic efficacy assessment, the ratio of average tumour volume between compound treated and vehicle control treated (T/C) is calculated. Reduction in tumour volume in the compound treated group compared to vehicle-treated control group results in T/C<1. The efficacy of LOX inhibitors described in this invention, as measured by T/C in a pancreatic cancer model, a colorectal cancer model and a breast cancer model is shown in Table 2 and is significant (p<0.05) for all the data presented.

[3] = system: MMTV-PyMT breast transgenic model primary tumour; assay: MMTV-PyMT transgenic mouse breast cancer model, primary tumour T/C; assay type: in vivo; details: 200 mg/kg po qd; ratio of average tumour volume treated/vehicle control; p<0.05
Experimental: as §1
(§3) MMTV-PyMT (Guy et al, 1992) (FVB) female mice were randomized by non-statistical methods to LOX inhibitor treatment groups from day 70 post-birth, when animals had no detectable tumour. Mice were treated daily by oral gavage with LOX inhibitor in vehicle, or daily vehicle (5% DMSO/2.5% Tween20 in water) by oral gavage. Tumour size was determined unblinded by caliper measurements of tumour length, width and depth and volume was calculated as 0.5236×length×width×depth (mm). In all experiments, mice were humanely killed and mammary tumours and lungs were collected when the primary tumours reached ethical limits or signs of ill health.
as §2

[4] = system: MMTV-PyMT breast transgenic model lung metastases; assay: MMTV-PyMT transgenic mouse breast cancer model, lung metastases quantification T/C; assay type: in vivo; details: 200 mg/kg po qd, treated/vehicle control, p<0.05
Experimental: as §3
For lung metastases quantification, all mouse tissue samples were fixed in 10% formalin (Sigma) and embedded in paraffin. Samples were sectioned and hematoxylin and eosin (H&E) stained. Samples were imaged with a Leica CN400 slide scanner. Lung metastases were manually selected using Pen tool in ImageScope. Lung metastases number was counted and area was measured using ImageScope. The investigator was blinded to the experimental groups. The ratio of average metastases surface between compound treated and vehicle control treated (TIC) is calculated. The ratio of average metastases numbers between compound treated and vehicle control treated (T/C) is also calculated. Reduction in metastases area and/or in metastatses number in the compound treated group compared to vehicle-treated control group results in T/C<1. The antimetastatic efficacy of LOX inhibitors described in this invention, as measured by T/C in a model of breast cancer metastasising to lungs is shown in Table 2 and is significant (p<0.05) for all the data presented.

Compound | inhibition at 10 µM [1] [%] | IC50 [1] [nM] | response vs control in vivo at 200 mg/kg [2] [%] | T/C MMT-PyMT breast transgenic model - primary tumour [3] | T/C MMT-PyMT breast transgenic model - metastases b) Area ([4]; lung metastases area) | T/C MMT-PyMT breast transgenic model - metastases a) Count ([4]; lung metastases number)
CC1(C)C[C@@H]2CN(C(=O)NCCO)C[C@H]1N(c1ccc(N3CCOCC3)cc1)C2 [Example 4, (1S,5S)—N-(2-hydroxyethyl)-9,9-dimethyl-6-(4-morpholinophenyl)-3,6-diazabicyclo[3.2.2]nonane-3-carboxamide] | 88 | 610 | 35 | – | – | –
CC1(C)C[C@@H]2CN(C(=O)NC3CCOCC3)C[C@H]1N(c1ccc(N3CCS(=O)(=O)CC3)cc1)C2 [Example 7, (1S,5S)-6-(4-(1,1-dioxidothiomorpholino)phenyl)-9,9-dimethyl-N-(tetrahydro-2H-pyran-4-yl)-3,6-diazabicyclo[3.2.2]nonane-3-carboxamide] | 88 | 540 | 34 | 0.25 | – | –
CC1(C)C[C@@H]2CN(C(=O)N3CCOCC3)C[C@H]1N(c1ccc(N3CCS(=O)(=O)CC3)cc1)C2 [Example 10, ((1S,5S)-6-(4-(1,1-dioxidothiomorpholino)phenyl)-9,9-dimethyl-3,6-diazabicyclo[3.2.2]nonan-3-yl)(morpholino)methanone] | 100 | < 180 | 39 | 0.11 | b) 0.0006 | a) 0.02
COCCOc1ccc(N2C[C@H]3CN(C(=O)NCCO)C[C@@H]2C(C)(C)C3)cc1 [Example 27, (1S,5S)-N-(2-Hydroxyethyl)-6-(4-(2-methoxyethoxy)phenyl)-9,9-dimethyl-3,6-diazabicyclo[3.2.2]nonane-3-carboxamide] | 88 | 990 | 60 | – | – | –
CC1(C)C[C@@H]2CN(CCCC#N)C[C@H]1N(c1ccc(N3CCS(=O)(=O)CC3)cc1)C2 [Example 39, 4-((1R,5S)-6-(4-(1,1-dioxidothiomorpholino)phenyl)-9,9-dimethyl-3,6-diazabicyclo[3.2.2]nonan-3-yl)butanenitrile] | 75 | 3180 | 48 | – | – | –
CC1(C)C[C@@H]2CN(C(=O)CCC#N)C[C@H]1N(c1ccc(N3CCS(=O)(=O)CC3)cc1)C2 [Example 49, 4-((1 S,5S)-6-(4-(1,1-Dioxidothiomorpholino)phenyl)-9,9-dimethyl-3,6-diazabicyclo[3.2.2]nonan-3-yl)-4-oxobutanenitrile] | 100 | – | 62 | – | – | –
CC1(C)C[C@@H]2CN(C(=O)N3CCS(=O)(=O)CC3)C[C@H]1N(c1cccc(N3CCS(=O)(=O)CC3)c1)C2 [Example 64, (1,1-dioxidothiomorpholino)((1S,5S)-6-(3-(1,1-dioxidothiomorpholino)phenyl)-9,9-dimethyl-3,6-diazabicyclo[3.2.2]nonan-3-yl)methanone] | 100 | – | – | – | – | –
COc1cc(OC)cc(N2C[C@H]3CN(C(=O)N4CCS(=O)(=O)CC4)C[C@@H]2C(C)(C)C3)c1 [Example 65, ((1S,5S)-6-(3,5-dimethoxyphenyl)-9,9-dimethyl-3,6-diazabicyclo[3.2.2]nonan-3-yl)(1,1-dioxidothiomorpholino)methanone] | 88 | – | – | – | – | –
